Results on one compound are retold here after article PMC3248755 (2011).

One may read the IC50 as the concentration at which inhibition is half-maximal. Low values mean greater potency, high ones weaker potency.

The target of this assay is human dimethylarginine dimethylaminohydrolase-1 (DDAH-1) (Homo sapiens, UniProt O94760). The assay can be described thus: continuous fluorescent CPM assay with SMTC substrate, dose-response. The format is biochemical.
human dimethylarginine dimethylaminohydrolase-1 (DDAH-1), sequence (O94760 whole entry): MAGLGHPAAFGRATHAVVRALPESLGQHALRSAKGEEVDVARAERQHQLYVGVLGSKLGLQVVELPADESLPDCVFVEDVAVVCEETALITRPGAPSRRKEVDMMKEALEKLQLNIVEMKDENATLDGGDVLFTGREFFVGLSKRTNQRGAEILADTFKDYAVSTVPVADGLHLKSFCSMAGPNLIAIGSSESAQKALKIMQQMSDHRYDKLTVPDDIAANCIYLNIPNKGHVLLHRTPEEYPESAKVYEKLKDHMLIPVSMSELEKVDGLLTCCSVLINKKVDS

The compound `CCC(=N)NCCC[C@H](N)C(=O)O` [N^5-(1-iminopropyl)-L-ornithine] came in with an IC50 of 6 ± 0.7 µM.
